From patent US20210269451A1, “PYRIDINYL HETEROCYCLYL COMPOUNDS FOR THE TREATMENT OF AUTOIMMUNE DISEASE” (Hoffmann-La Roche Inc., priority 2018, published 2021)

Tests used:
human TLR8 = target: T1, human TLR8 (Homo sapiens, UniProt Q9NR97); assay: HEK293-Blue-hTLR-8 cells assay; assay type: cell-based; details: HEK293-Blue-hTLR8 cells, R848 stimulation, 20 hrs, SEAP reporter; read-out: HEK/hTLR8 IC50
T1 construct: host or cells: HEK293-Blue-hTLR-8 (HEK293)
T1 sequence (Q9NR97 27-1041): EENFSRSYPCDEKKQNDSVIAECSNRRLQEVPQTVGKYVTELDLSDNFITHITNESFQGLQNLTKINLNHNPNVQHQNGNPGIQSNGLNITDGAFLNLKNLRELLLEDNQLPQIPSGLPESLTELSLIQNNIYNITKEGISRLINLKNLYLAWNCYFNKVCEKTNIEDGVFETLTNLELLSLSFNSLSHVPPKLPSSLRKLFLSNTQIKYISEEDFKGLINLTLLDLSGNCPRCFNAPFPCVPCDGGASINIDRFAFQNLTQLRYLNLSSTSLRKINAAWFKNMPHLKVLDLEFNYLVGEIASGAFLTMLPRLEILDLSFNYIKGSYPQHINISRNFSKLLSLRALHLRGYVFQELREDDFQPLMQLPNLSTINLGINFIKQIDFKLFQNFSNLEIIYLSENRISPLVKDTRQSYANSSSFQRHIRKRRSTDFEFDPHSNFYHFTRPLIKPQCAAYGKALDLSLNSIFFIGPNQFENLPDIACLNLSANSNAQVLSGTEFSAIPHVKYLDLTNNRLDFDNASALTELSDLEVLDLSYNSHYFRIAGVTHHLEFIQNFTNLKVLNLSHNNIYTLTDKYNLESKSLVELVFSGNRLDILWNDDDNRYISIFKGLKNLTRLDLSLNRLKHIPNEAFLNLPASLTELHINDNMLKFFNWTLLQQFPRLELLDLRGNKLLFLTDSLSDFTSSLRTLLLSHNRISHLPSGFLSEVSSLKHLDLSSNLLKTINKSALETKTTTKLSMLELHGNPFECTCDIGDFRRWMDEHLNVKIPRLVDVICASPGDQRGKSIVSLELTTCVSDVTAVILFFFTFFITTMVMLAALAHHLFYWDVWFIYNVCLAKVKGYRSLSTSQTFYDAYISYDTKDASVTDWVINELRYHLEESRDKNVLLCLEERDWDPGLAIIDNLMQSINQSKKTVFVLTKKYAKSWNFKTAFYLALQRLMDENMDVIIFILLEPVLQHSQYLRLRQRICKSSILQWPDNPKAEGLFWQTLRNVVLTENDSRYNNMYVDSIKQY
Description: The following tests were carried out in order to determine the activity of the compounds of formula (I) and (Ia) in HEK293-Blue-hTLR-7/8/9 cells assay.
HEK293-Blue-hTLR-8 cells assay:
A stable HEK293-Blue-hTLR-8 cell line was purchased from InvivoGen (Cat. #: hkb-htlr8, San Diego, Calif., USA). These cells were originally designed for studying the stimulation of human TLR8 by monitoring the activation of NE-κB. A SEAP (secreted embryonic alkaline phosphatase) reporter gene was placed under the control of the IFN-β minimal promoter fused to five NE-κB and AP-1-binding sites. The SEAP was induced by activating NE-κB and AP-1 via stimulating HEK-Blue hTLR8 cells with TLR8 ligands. Therefore the reporter expression was declined by TLR8 antagonist under the stimulation of a ligand, such as R848, for incubation of 20 hrs. The cell culture supernatant SEAP reporter activity was determined using QUANTI-Blue™ kit (Cat. #: rep-qbl, Invivogen, San Diego, Ca, USA) at a wavelength of 640 nm, a detection medium that turns purple or blue in the presence of alkaline phosphatase.
HEK293-Blue-hTLR8 cells were incubated at a density of 250,000-450,000 cells/mL in a volume of 170 μL in a 96-well plate in Dulbecco's Modified Eagle's medium (DMEM) containing 4.5 g/L glucose, 50 U/mL penicillin, […], […], 2 mM L-glutamine, 10% (v/v) heat-inactivated fetal bovine serum with addition of 20 μL test compound in a serial dilution in the presence of final DMSO at 1% and 10 μL of 60 uM R848 in above DMEM, perform incubation under 37° C. in a CO2 incubator for 20 hrs. Then 20 μL of the supernatant from each well was incubated with 180 μL Quanti-blue substrate solution at 37° C. for 2 hrs and the absorbance was read at 620˜655 nm using a spectrophotometer. The signalling pathway that TLR8 activation leads to downstream NE-κB activation has been widely accepted, and therefore similar reporter assay was modified for evaluating TLR8 antagonist.

CYP2D6 = target: T2, CYP2D6 (Homo sapiens, UniProt P10635); assay: CYP inhibition assay in human liver microsome; assay type: in vitro ADME; details: human liver microsomes, probe dextromethorphan, dextromethorphan substrate, percentage inhibition <0: not or weak inhibitor, read-out: CYP 2D6 inhibition %@10 μM
T2 construct: tissue BD-Gentest 452117; host or cells: human liver microsomes
T2 sequence (P10635 whole entry): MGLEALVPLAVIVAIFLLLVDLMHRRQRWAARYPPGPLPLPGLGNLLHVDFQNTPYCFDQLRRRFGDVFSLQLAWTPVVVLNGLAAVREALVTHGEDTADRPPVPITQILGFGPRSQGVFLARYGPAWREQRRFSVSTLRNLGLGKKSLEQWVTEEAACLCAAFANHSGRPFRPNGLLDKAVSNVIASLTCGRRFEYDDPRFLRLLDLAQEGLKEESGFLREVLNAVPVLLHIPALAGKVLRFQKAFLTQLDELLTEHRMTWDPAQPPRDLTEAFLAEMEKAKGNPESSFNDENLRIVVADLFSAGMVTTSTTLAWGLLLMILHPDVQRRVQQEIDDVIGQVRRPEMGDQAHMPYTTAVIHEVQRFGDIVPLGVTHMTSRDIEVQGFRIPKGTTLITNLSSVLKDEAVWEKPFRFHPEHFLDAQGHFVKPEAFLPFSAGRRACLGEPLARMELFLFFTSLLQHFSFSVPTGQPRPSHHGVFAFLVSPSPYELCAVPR
Description: The compounds would be desirable to have minimal DDI liabilities. Therefore, the effects of compounds of formula (I) or (Ia) on CYP2D6 are determined.
This is a high throughput screening assay used for assessment of reversible inhibition of CYP2D6 activity of test compounds in human liver microsome (HLM) in early discovery stage.
10 mM DMSO stock solutions of test compounds were diluted in DMSO to generate 2 mM intermediate stock solution. 250 nL of intermediate stock solution were transferred in duplicate into 3 separate 384 well microtitre plates (assay-ready plates). A mixture of HLM and each substrate was made up. 45 μL of HLM substrate mix was then transferred to each well of an assay ready plate and mixed. The negative (solvent) and positive control (standard inhibitor for CYP 2D6) were included in each assay ready plate. The assay ready plate was warmed to 37° C. in an incubator over 10 minutes. 5 μL pre-warmed NADPH regenerating system was added to each incubation well to start the reaction. Final incubation volume was 50 μL. The assay plate then was placed back in the 37° C. incubator. After 10 minutes incubation, incubates were quenched by addition of 50 μL 100% acetonitrile containing internal standards (20 ng/mL D3-Dextrorphan). The supernatants were collected for RapidFire/MS/MS analysis.
RapidFire online solid phase extraction/sample injection system (Agilent) coupled with API4000 triple quadrupole mass spectrometer (AB Sciex) were used for sample analysis. The mobile phase composed of acetonitrile and water supplemented with 0.1% formic acid. A C4 solid phase extraction cartridge is used for sample separation. MS detection is achieved in positive ion MRM mode.
Data analysis Peak areas for substrate, metabolite and internal standard are determined using the RapidFire integrator software (version 3.6.12009.12296). Peak area ratios (PAR) of metabolite and internal standard (stable-labelled metabolite) are then calculated. The measurement window for each experiment is then defined:
PAR (0% activity), average PAR for all incubations containing concentrated inhibitor; Par (100% activity), average PAR for all incubations containing no inhibitor (DMSO controls);
% Activity (test inhibitor)=
=[PAR(test inhibitor)-PAR(0% activity)]/[PAR(100% activity)-PAR(0% activity)];
% Inhibition (test inhibitor)=100-% Activity (test inhibitor).

SMILES | IC50 (human TLR8) | inhibition at 10 min, 10 μM (CYP2D6)
Cc1cc(N2CCC23CN(C[C@H]2CN(c4ccc(C#N)c5ncccc45)C[C@@H](C)O2)C3)ccn1 [Example 15] | 6 nM | 4%
Cc1cc(N2CCC3(CN(C[C@H]4CN(c5ccc(C#N)c6ncccc56)C[C@@H](C)O4)C3)C2)cc(C)n1 [Example 9] | 51 nM | -5%
Cc1cc(C2CCN(C[C@H]3CN(c4ccc(C#N)c5ncccc45)C[C@@H](C)O3)CC2)cc(N)n1 [Example 43, 5-[(2S,6R)-2-[[4-(2-amino-6-methyl-4-pyridyl)-1-piperidyl]methyl]-6-methyl-morpholin-4-yl]quinoline-8-carbonitrile] | 18 nM | -13%
Cc1cc(N2CCOC3(CN(C[C@H]4CN(c5ccc(C#N)c6ncccc56)C[C@@H](C)O4)C3)C2)ccn1 [Example 16] | < 3 nM | 5%
Cc1cc(N2CC3(CN(C[C@H]4CN(c5ccc(C#N)c6ncccc56)C[C@@H](C)O4)C3)C2)cc(C(C)O)n1 (stereo partly drawn) [Example 44, 5-[(2S,6R)-2-[[2-[2-(1-hydroxyethyl)-6-methyl-4-pyridyl]-2,6-diazaspiro[3.3]heptan-6-yl]methyl]-6-methyl-morpholin-4-yl]quinoline-8-carbonitrile] | 30 nM | 5%
Cc1cc(N(C)C2CN(C[C@H]3CN(c4ccc(C#N)c5ncccc45)C[C@@H](C)O3)C2)cc(C)n1 [Example 11] | 11 nM | -7.5%
C[C@@H]1CN(c2ccc(C#N)c3ncccc23)C[C@H](CN2CC3(C2)CN(c2ccnc(C4CC4)c2)CCO3)O1 [Example 3, 5-[(2S,6R)-2-[[8-(2-cyclopropyl-4-pyridyl)-5-oxa-2,8-diazaspiro[3.5]nonan-2-yl]methyl]-6-methyl-morpholin-4-yl]quinoline-8-carbonitrile] | < 3 nM | 6%
C[C@@H]1CN(c2ccc(C#N)c3ncccc23)C[C@H](CN2CC3(C2)CN(c2ccnc(C4CC4)c2)C3)O1 [Example 49, 5-[(2S,6R)-2[[2-(2-cyclopropyl-4-pyridyl)-2,6-diazaspiro[3.3]heptan-6-yl]methyl]-6-methyl-morpholin-4-yl]quinoline-8-carbonitrile] | 20 nM | –
Cc1cc(N2CCOC3CN(CC4CN(c5ccc(C#N)c6ncccc56)CC(C)O4)CC32)cc(C)n1 (single isomer, unassigned) [Example 17A] | < 3 nM | –
Cc1cc(N2CCC23CN(C[C@H]2CN(c4ccc(C#N)c5ncccc45)C[C@@H](C)O2)C3)cc(C)n1 [Example 8] | 7 nM | –
C[C@@H]1CN(c2ccc(C#N)c3ncccc23)C[C@H](CN2CCN(c3ccnc(N)c3)CC2)O1 [Example 19, 5-[(2S,6R)-2-[[4-(2-amino-4-pyridyl)piperazin-1-yl]methyl]-6-methyl-morpholin-4-yl]quinoline-8-carbonitrile] | 3 nM | –
C[C@@H]1CN(c2ccc(C#N)c3ncccc23)C[C@H](CN2CC3(C2)CN(c2ccnc(C(C)(C)O)c2)C3)O1 [Example 48, 5-[(2S,6R)-2[[2-[2-(1-hydroxy-1-methyl-ethyl)-4-pyridyl]-2,6-diazaspiro[3.3]heptan-6-yl]methyl]-6-methyl-morpholin-4-yl]quinoline-8-carbonitrile] | 198 nM | –

The remaining lines, values ahead:

IC50 (human TLR8) | inhibition at 10 min, 10 μM (CYP2D6) | SMILES
4 nM | 10.5% | Cc1cc(N2CCN(C[C@H]3CN(c4ccc(C#N)c5ncccc45)C[C@@H](C)O3)CC2)cc(CO)n1 [Example 50]
7 nM | – | Cc1cc(N2CC[C@H](F)[C@H](NC[C@H]3CN(c4ccc(C#N)c5ncccc45)C[C@@H](C)O3)C2)cc(CO)n1 [Example 33]
32 nM | – | Cc1cc(N2CC[C@@H](NC[C@H]3CN(c4ccc(C#N)c5ncccc45)C[C@@H](C)O3)C2)cc(CO)n1 [Example 28]
5 nM | – | Cc1cc(N2CCN(C[C@H]3CN(c4ccc(C#N)c5ncccc45)C[C@@H](C)O3)[C@H](C)C2)cc(CO)n1 [Example 4B]
41 nM | – | Cc1cc(N2CCC(NC[C@H]3CN(c4ccc(C#N)c5ncccc45)C[C@@H](C)O3)CC2)cc(CO)n1 [Example 23]
14 nM | -2.5% | C[C@@H]1CN(c2ccc(C#N)c3ncccc23)C[C@H](CN2CCN(c3cc(N)nc(CO)c3)CC2)O1 [Example 45, 5-[(2S,6R)-2-[[4-[2-amino-6-(hydroxymethyl)-4-pyridyl]piperazin-1-yl]methyl]-6-methyl-morpholin-4-yl]quinoline-8-carbonitrile]
12 nM | – | Cc1cc(N2CC(NC[C@H]3CN(c4ccc(C#N)c5ncccc45)C[C@@H](C)O3)CC(F)(F)C2)cc(CO)n1 (stereo partly drawn) [Example 36]
7 nM | – | Cc1cc(N2CCN(C[C@H]3CN(c4ccc(C#N)c5ncccc45)C[C@@H](C)O3)[C@@H](C)C2)cc(CO)n1 [Example 4A]
70 nM | – | C[C@@H]1CN(c2ccc(C#N)c3ncccc23)C[C@H](CNC2CCN(c3ccnc(N)c3)CC2)O1 [Example 20, 5-[(2S,6R)-2-[[[1-(2-amino-4-pyridyl)-4-piperidyl]amino]methyl]-6-methyl-morpholin-4-yl]quinoline-8-carbonitrile]
< 3 nM | – | Cc1cc(N2CC(N(C)C[C@H]3CN(c4ccc(C#N)c5ncccc45)C[C@@H](C)O3)C2)cc(CO)n1 [Example 37]
25 nM | – | Cc1cc(N2CC[C@H](NC[C@H]3CN(c4ccc(C#N)c5ncccc45)C[C@@H](C)O3)C2)cc(CO)n1 [Example 29]
4 nM | – | Cc1cc(N2CC[C@@H](F)[C@H](NC[C@H]3CN(c4ccc(C#N)c5ncccc45)C[C@@H](C)O3)C2)cc(CO)n1 [Example 34]
